According to ChEMBL document CHEMBL1944528, “Design, synthesis and CoMFA studies of N1-amino acid substituted 2,4,5-triphenyl imidazoline derivatives as p53-MDM2 binding inhibitors” (Bioorg Med Chem, 2012):

Assays:
HL-60 = test: Antiproliferative activity against human HL60 cells after 72 hrs by MTT assay; format: functional, cell-based
HCT-116 = test: Antiproliferative activity against human HCT116 cells after 72 hrs by MTT assay; format: functional, cell-based
SW-620 = test: Antiproliferative activity against human SW620 cells after 72 hrs by MTT assay; format: functional, cell-based
A549 = test: Antiproliferative activity against human A549 cells after 72 hrs by MTT assay; format: functional, cell-based
PC-3 = test: Antiproliferative activity against human PC3 cells after 72 hrs by MTT assay; format: functional, cell-based
[1] = molecular target: Tumour suppressor p53/oncoprotein Mdm2 (Homo sapiens, UniProt Q00987); test: Competitive inhibition of MDM2/P53 interaction after 1 hr by fluorescence polarization assay; format: protein assay
Chain of Tumour suppressor p53/oncoprotein Mdm2 (P04637 whole entry): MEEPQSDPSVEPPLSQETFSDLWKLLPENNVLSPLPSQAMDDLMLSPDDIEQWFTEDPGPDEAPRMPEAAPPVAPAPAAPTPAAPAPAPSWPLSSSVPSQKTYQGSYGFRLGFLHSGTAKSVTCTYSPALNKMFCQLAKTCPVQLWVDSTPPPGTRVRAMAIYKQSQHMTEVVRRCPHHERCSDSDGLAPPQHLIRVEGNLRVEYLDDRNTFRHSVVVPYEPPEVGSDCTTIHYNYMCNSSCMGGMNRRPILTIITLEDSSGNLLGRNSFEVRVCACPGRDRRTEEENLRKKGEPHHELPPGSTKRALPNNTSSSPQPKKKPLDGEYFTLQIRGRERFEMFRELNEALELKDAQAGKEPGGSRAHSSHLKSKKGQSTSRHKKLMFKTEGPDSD
Chain of Tumour suppressor p53/oncoprotein Mdm2 (Q00987 whole entry): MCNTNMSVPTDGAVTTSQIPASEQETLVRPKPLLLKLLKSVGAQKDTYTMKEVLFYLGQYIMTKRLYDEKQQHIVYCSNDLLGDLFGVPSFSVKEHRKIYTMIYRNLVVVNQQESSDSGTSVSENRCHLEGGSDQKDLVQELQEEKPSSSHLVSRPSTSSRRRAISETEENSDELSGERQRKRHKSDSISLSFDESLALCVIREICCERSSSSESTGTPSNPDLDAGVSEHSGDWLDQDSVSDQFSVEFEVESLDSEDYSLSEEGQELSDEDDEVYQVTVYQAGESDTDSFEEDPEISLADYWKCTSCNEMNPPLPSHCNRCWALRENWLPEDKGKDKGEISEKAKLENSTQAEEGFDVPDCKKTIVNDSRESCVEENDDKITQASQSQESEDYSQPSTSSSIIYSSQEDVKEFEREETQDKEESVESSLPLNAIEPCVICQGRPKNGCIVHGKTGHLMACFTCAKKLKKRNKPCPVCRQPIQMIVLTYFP

[2] = molecular target: Tumour suppressor p53/oncoprotein Mdm2 (Homo sapiens) (UniProt P04637+Q00987); test: Ratio of nutlin-1 IC50 to compound IC50 for MDM2 expressed in Escherichia coli BL-21 and P53 binding interaction after 1 hr by fluorescence polarization competitive binding assay
Chain of Tumour suppressor p53/oncoprotein Mdm2 (Homo sapiens) (P04637 whole entry, looked up): as the sequence (P04637 whole entry) above
Chain of Tumour suppressor p53/oncoprotein Mdm2 (Homo sapiens) (Q00987 whole entry, looked up): as the sequence (Q00987 whole entry) above

[3] = Homo sapiens, HL-60, 72 h, read-out: IC50
[4] = Homo sapiens, HCT-116, 72 h, read-out: IC50
[5] = Homo sapiens, SW-620, 72 h, read-out: IC50
[6] = Homo sapiens, A549, 72 h, read-out: IC50
[7] = Homo sapiens, PC-3, 72 h, read-out: IC50

Compound | IC50 (HL-60; [3]) | IC50 (HCT-116; [4]) | IC50 (SW-620; [5]) | IC50 (A549; [6]) | IC50 (PC-3; [7]) | IC50 ([1]; read-out: IC50) | Ratio IC50 [2] | IC50 (HL-60; hl-60) | IC50 (HCT-116; hct-116) | IC50 (SW-620; sw-620) | IC50 (A549; a549) | IC50 (PC-3; pc-3) | IC50 ([1]; read-out: pIC50 (converted))
COc1ccc(C2=NC(c3ccc(Cl)cc3)C(c3ccc(Cl)cc3)N2C(=O)N2CCN(C(C)=O)CC2)c(OC(C)C)c1 (stereo not given) | 19.5 µM | 20.5 µM | 33.7 µM | 24 µM | 40.6 µM | – | – | – | – | – | – | – | –
COc1ccc(C2=N[C@H](c3ccc(Cl)cc3)[C@H](c3ccc(Cl)cc3)N2C(=O)NCC(=O)N2CCN(C(C)=O)CC2)c(OC(C)C)c1 | 5.48 µM | 6.41 µM | 8.13 µM | 3.42 µM | 7.1 µM | 5.43 µM | – | – | – | – | – | – | –
COc1ccc(C2=N[C@H](c3ccc(Cl)cc3)[C@H](c3ccc(Cl)cc3)N2C(=O)NCCC(=O)N2CCN(C)CC2)c(OC(C)C)c1 | 2.93 µM | 2.36 µM | 5.99 µM | 5.95 µM | 6.83 µM | 5.83 µM | – | – | – | – | – | – | –
CCN(CC)C(=O)[C@H](C)NC(=O)N1C(c2ccc(OC)cc2OC(C)C)=N[C@H](c2ccc(Cl)cc2)[C@@H]1c1ccc(Cl)cc1 | 4.22 µM | 2.01 µM | 4.6 µM | 3.31 µM | 5.32 µM | 12.6 µM | – | – | – | – | – | – | –
COc1ccc(C2=N[C@H](c3ccc(Cl)cc3)[C@H](c3ccc(Cl)cc3)N2C(=O)NCC(=O)N2CCN(C)CC2)c(OC(C)C)c1 | 3.29 µM | 4.49 µM | 6.17 µM | 3.62 µM | 3.55 µM | 20.6 µM | – | – | – | – | – | – | –
CCN(CC)C(=O)CNC(=O)N1C(c2ccc(OC)cc2OC(C)C)=N[C@H](c2ccc(Cl)cc2)[C@@H]1c1ccc(Cl)cc1 | 6.08 µM | 5.1 µM | 12.3 µM | 4.33 µM | 5.84 µM | 9.41 µM | – | – | – | – | – | – | –
COc1ccc(C2=N[C@H](c3ccc(Cl)cc3)[C@H](c3ccc(Cl)cc3)N2C(=O)N[C@H](C)C(=O)N2CCN(C)CC2)c(OC(C)C)c1 | 3.17 µM | 3.71 µM | 2.74 µM | 2.97 µM | 6.74 µM | 5.96 µM | – | – | – | – | – | – | –
COc1ccc(C2=N[C@H](c3ccc(Cl)cc3)[C@H](c3ccc(Cl)cc3)N2C(=O)N[C@@H](C)C(=O)N2CCN(C)CC2)c(OC(C)C)c1 | – | – | – | – | – | 5.96 µM | – | Not Active | Not Active | Not Active | Not Active | Not Active | –
COc1ccc(C2=N[C@H](c3ccc(Cl)cc3)[C@H](c3ccc(Cl)cc3)N2C(=O)NCC(=O)N2CCCC2)c(OC(C)C)c1 | 6.11 µM | 3.99 µM | 2.9 µM | 3.13 µM | 5.87 µM | 10.3 µM | – | – | – | – | – | – | –
COc1ccc(C2=N[C@H](c3ccc(Cl)cc3)[C@H](c3ccc(Cl)cc3)N2C(=O)NCC(=O)O)c(OC(C)C)c1 | 5.73 µM | 6.07 µM | 5.7 µM | 0.48 µM | 3.9 µM | 6.18 µM | – | – | – | – | – | – | –

Further compounds by falling IC50 ([1]; read-out: IC50), results first:

IC50 (HL-60; [3]) | IC50 (HCT-116; [4]) | IC50 (SW-620; [5]) | IC50 (A549; [6]) | IC50 (PC-3; [7]) | IC50 ([1]; read-out: IC50) | Ratio IC50 [2] | IC50 (HL-60; hl-60) | IC50 (HCT-116; hct-116) | IC50 (SW-620; sw-620) | IC50 (A549; a549) | IC50 (PC-3; pc-3) | IC50 ([1]; read-out: pIC50 (converted)) | Compound
2.99 µM | 5.63 µM | 6.25 µM | 10.9 µM | 7.02 µM | 5.27 µM | – | – | – | – | – | – | 5.75 µM | COc1ccc(C2=N[C@H](c3ccc(Cl)cc3)[C@H](c3ccc(Cl)cc3)N2C(=O)NCC(=O)N2CCOCC2)c(OC(C)C)c1
8.48 µM | 7.53 µM | 8.56 µM | > 50 µM | 16.8 µM | 5.01 µM | – | – | – | – | – | – | – | CCN(CC)C(=O)[C@@H](C)NC(=O)N1C(c2ccc(OC)cc2OC(C)C)=N[C@H](c2ccc(Cl)cc2)[C@@H]1c1ccc(Cl)cc1
2.93 µM | 4.74 µM | 3.88 µM | 3.63 µM | 6.89 µM | 4.29 µM | – | – | – | – | – | – | – | CCOC(=O)CNC(=O)N1C(c2ccc(OC)cc2OC(C)C)=N[C@H](c2ccc(Cl)cc2)[C@@H]1c1ccc(Cl)cc1
6.93 µM | 4.26 µM | 6.45 µM | 1.38 µM | 7.54 µM | 4.18 µM | – | – | – | – | – | – | – | CCN(CC)C(=O)CCCNC(=O)N1C(c2ccc(OC)cc2OC(C)C)=N[C@H](c2ccc(Cl)cc2)[C@@H]1c1ccc(Cl)cc1
– | – | – | – | – | 3.39 µM | – | Not Active | Not Active | Not Active | Not Active | Not Active | – | COc1ccc(C2=N[C@H](c3ccc(Cl)cc3)[C@H](c3ccc(Cl)cc3)N2C(=O)N[C@@H](C)C(=O)O)c(OC(C)C)c1
7.82 µM | 9.22 µM | 9.41 µM | 14.3 µM | 8.59 µM | 3.36 µM | – | – | – | – | – | – | – | CCOC(=O)CCNC(=O)N1C(c2ccc(OC)cc2OC(C)C)=N[C@H](c2ccc(Cl)cc2)[C@@H]1c1ccc(Cl)cc1
6.7 µM | 5.95 µM | 9.2 µM | 1.67 µM | 5.59 µM | 3.27 µM | – | – | – | – | – | – | – | COc1ccc(C2=N[C@H](c3ccc(Cl)cc3)[C@H](c3ccc(Cl)cc3)N2C(=O)N[C@H](C)C(=O)O)c(OC(C)C)c1
3.6 µM | 3.78 µM | 5.89 µM | 3.96 µM | 7.58 µM | 2.23 µM | – | – | – | – | – | – | – | COc1ccc(C2=N[C@H](c3ccc(Cl)cc3)[C@H](c3ccc(Cl)cc3)N2C(=O)NCCC(=O)N2CCOCC2)c(OC(C)C)c1
5.73 µM | 6.07 µM | 5.7 µM | 0.48 µM | 3.9 µM | 2.05 µM | – | – | – | – | – | – | – | COc1ccc(C2=N[C@H](c3ccc(Cl)cc3)[C@H](c3ccc(Cl)cc3)N2C(=O)NCCCC(=O)O)c(OC(C)C)c1
5.81 µM | 6.65 µM | 8.02 µM | 3.25 µM | 6.2 µM | 1.66 µM | – | – | – | – | – | – | – | CCOC(=O)CCCNC(=O)N1C(c2ccc(OC)cc2OC(C)C)=N[C@H](c2ccc(Cl)cc2)[C@@H]1c1ccc(Cl)cc1
– | – | – | – | – | 1.07 µM | – | Not Active | Not Active | Not Active | Not Active | Not Active | – | COc1ccc(C2=N[C@H](c3ccc(Cl)cc3)[C@H](c3ccc(Cl)cc3)N2C(=O)NCCC(=O)O)c(OC(C)C)c1
– | – | – | – | – | 0.84 µM | – | Not Active | Not Active | Not Active | Not Active | Not Active | – | CCOC(=O)[C@H](C)NC(=O)N1C(c2ccc(OC)cc2OC(C)C)=N[C@H](c2ccc(Cl)cc2)[C@@H]1c1ccc(Cl)cc1
4.62 µM | 6.39 µM | 3.13 µM | 4.03 µM | 7.26 µM | 0.65 µM | – | – | – | – | – | – | – | CCN(CC)C(=O)CCNC(=O)N1C(c2ccc(OC)cc2OC(C)C)=N[C@H](c2ccc(Cl)cc2)[C@@H]1c1ccc(Cl)cc1
3.78 µM | 3.73 µM | 5.52 µM | 0.31 µM | 2.2 µM | 0.59 µM | 8 | – | – | – | – | – | – | CCOC(=O)[C@@H](C)NC(=O)N1C(c2ccc(OC)cc2OC(C)C)=N[C@H](c2ccc(Cl)cc2)[C@@H]1c1ccc(Cl)cc1
